# Reference: patent publication US12252524B2, “GIP/GLP1 co-agonist compounds” (Eli Lilly and Company, priority 2018, dated 2025)
# Columns and labels:
# human GLP-1R = human GLP-1R (Homo sapiens, UniProt P43220); assay: [125I]-GLP-1 binding (SPA), human GLP-1 receptor; parameters: expressed in transfected cells; crude membranes; conditions: read-out: hGLP1R Ki, (nM) (SEM, n)
# Summary of the method: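 Membranes: hypotonic lysis (50 mM Tris HCl, pH 7.5, protease inhibitors), Potter-Elvehjem homogenization, high-speed pellet (35000×g 1 h or 25000×g 30 min, 4° C.). Buffer: 25 mM HEPES pH 7.4, 2.5 mM CaCl2, 1 mM MgCl2. Four-parameter IC50 fit; Ki as geometric mean ± SEM.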
# human Gcg receptor = target: T1, human Gcg receptor (Homo sapiens, UniProt P47871); assay: [125I]-Glucagon binding (SPA), human Gcg receptor; conditions: read-out: hGLcgR Ki, nM (SEM, n)
# T1 construct: expressed in transfected cells; crude membranes
# T1 sequence (P47871 26-477): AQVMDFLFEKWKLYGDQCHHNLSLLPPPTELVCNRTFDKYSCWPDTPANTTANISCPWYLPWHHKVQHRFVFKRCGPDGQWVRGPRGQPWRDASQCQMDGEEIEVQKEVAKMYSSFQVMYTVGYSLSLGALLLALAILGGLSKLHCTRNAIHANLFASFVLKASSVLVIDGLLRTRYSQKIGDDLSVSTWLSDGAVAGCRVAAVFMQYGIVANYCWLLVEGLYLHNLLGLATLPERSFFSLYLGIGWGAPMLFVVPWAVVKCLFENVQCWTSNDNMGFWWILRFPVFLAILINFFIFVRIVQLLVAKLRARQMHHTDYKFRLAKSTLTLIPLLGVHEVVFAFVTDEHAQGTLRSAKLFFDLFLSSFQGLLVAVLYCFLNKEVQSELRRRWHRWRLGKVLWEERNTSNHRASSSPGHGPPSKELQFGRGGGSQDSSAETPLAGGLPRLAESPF
# Summary of the method: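 Cell pellets were lysed in hypotonic Tris buffer, pH 7.5, homogenized, and spun at low then high speed to give crude membranes. Ki was derived from the fitted IC50.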
# [1] = target: T2, gastric inhibitory peptide receptor (GIPR) (Homo sapiens, UniProt P48546); assay: cAMP pharmacological functional assay in presence of casein, hGIPR; assay type: cell-based; conditions: HEK293 cells expressing hGIPR, 0.1% Casein, geometric mean; read-out: hGIPR cAMP Rel EC50 nM (SEM, n)
# T2 sequence (P48546 22-466): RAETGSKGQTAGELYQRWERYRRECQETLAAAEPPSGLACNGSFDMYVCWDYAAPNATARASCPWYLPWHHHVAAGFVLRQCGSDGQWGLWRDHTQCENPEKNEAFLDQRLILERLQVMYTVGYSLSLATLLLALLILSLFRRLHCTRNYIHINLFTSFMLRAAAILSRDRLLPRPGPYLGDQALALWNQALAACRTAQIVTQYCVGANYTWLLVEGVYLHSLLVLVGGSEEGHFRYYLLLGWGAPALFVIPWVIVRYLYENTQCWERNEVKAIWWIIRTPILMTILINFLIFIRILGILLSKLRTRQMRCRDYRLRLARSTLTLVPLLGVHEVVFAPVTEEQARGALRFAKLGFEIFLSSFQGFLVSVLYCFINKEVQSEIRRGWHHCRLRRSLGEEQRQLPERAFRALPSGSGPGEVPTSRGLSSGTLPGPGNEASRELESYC
# [2] = target: human GLP-1 receptor (GLP-1R) (Homo sapiens, UniProt P43220); assay: cAMP pharmacological functional assay in presence of casein, hGLP-1R; assay type: cell-based; conditions: HEK293 cells expressing hGLP-1R, 0.1% Casein, geometric mean; read-out: hGLP1R cAMP Rel EC50 nM (SEM, n)
# Sequence of human GLP-1 receptor (GLP-1R) (P43220 24-463): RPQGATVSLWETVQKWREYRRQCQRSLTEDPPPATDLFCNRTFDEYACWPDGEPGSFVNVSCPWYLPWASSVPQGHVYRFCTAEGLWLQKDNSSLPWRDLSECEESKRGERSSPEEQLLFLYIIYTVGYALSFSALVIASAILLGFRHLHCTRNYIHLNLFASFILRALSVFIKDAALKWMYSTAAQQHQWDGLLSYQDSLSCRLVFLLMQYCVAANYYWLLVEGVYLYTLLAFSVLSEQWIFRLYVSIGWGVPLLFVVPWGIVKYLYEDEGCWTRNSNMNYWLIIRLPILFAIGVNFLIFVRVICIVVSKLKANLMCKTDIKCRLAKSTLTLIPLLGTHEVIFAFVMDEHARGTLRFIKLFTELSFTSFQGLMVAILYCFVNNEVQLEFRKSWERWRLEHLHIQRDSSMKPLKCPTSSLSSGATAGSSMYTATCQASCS
# human GIP receptor = target: T3, human GIP receptor (Homo sapiens, UniProt P48546); assay: [125I]-GIP binding (SPA), human GIP receptor; conditions: read-out: hGIPR Ki, nM (SEM, n)
# T3 construct: expressed in transfected cells; crude membranes
# T3 sequence (P48546 22-466): T2 sequence (P48546 22-466)
# Sequence of human GLP-1R (P43220 24-463): as above
SMILES,Ki (human GLP-1R) [nM],Ki (human Gcg receptor) [nM],EC50 [1] [nM],EC50 [2] [nM],Ki (human GIP receptor) [nM]
CC[C@H](C)[C@H](NC(=O)[C@H](CC(C)C)NC(=O)[C@H](Cc1ccc(O)cc1)NC(=O)[C@H](CCC(=O)O)NC(=O)[C@@H](NC(=O)[C@](C)(Cc1ccccc1)NC(=O)[C@H](C)NC(=O)C(C)(C)NC(=O)[C@H](CCC(N)=O)NC(=O)[C@H](C)NC(=O)[C@H](CCCCNC(=O)COCCOCCNC(=O)COCCOCCNC(=O)CC[C@H](NC(=O)CCCCCCCCCCCCCCCCCCC(=O)O)C(=O)O)NC(=O)[C@H](CCCCN)NC(=O)[C@H](CC(=O)O)NC(=O)[C@H](CC(C)C)NC(=O)[C@H](CC(C)C)NC(=O)[C@@H](NC(=O)[C@H](CO)NC(=O)[C@H](Cc1ccc(O)cc1)NC(=O)[C@H](CC(=O)O)NC(=O)[C@H](CO)NC(=O)[C@@H](NC(=O)[C@H](Cc1ccccc1)NC(=O)[C@@H](NC(=O)CNC(=O)[C@H](CCC(=O)O)NC(=O)C(C)(C)NC(=O)[C@@H](N)Cc1ccc(O)cc1)[C@@H](C)O)[C@@H](C)O)[C@@H](C)CC)[C@@H](C)CC)C(=O)N[C@@H](CCC(=O)O)C(=O)NCC(=O)NCC(=O)N1CCC[C@H]1C(=O)N[C@@H](CO)C(=O)N[C@@H](CO)C(=O)NCC(=O)N[C@@H](C)C(=O)N1CCC[C@H]1C(=O)N1CCC[C@H]1C(=O)N1CCC[C@H]1C(=O)N[C@@H](CO)C(N)=O [Example 67],10.2,270,0.0913,0.447,0.061
CC[C@H](C)[C@H](NC(=O)[C@H](CC(C)C)NC(=O)[C@H](Cc1ccc(O)cc1)NC(=O)[C@H](CCC(=O)O)NC(=O)[C@@H](NC(=O)[C@H](Cc1ccccc1)NC(=O)[C@H](C)NC(=O)C(C)(C)NC(=O)[C@H](CCC(N)=O)NC(=O)[C@H](C)NC(=O)[C@H](CCCCNC(=O)COCCOCCNC(=O)COCCOCCNC(=O)CC[C@H](NC(=O)CCCCCCCCCCCCCCCCCCC(=O)O)C(=O)O)NC(=O)[C@H](CCCCN)NC(=O)[C@H](CC(=O)O)NC(=O)[C@H](CC(C)C)NC(=O)[C@H](CC(C)C)NC(=O)[C@@H](NC(=O)[C@](C)(CO)NC(=O)[C@H](Cc1ccc(O)cc1)NC(=O)[C@H](CC(=O)O)NC(=O)[C@H](CO)NC(=O)[C@@H](NC(=O)[C@H](Cc1ccccc1)NC(=O)[C@@H](NC(=O)CNC(=O)[C@H](CCC(=O)O)NC(=O)C(C)(C)NC(=O)[C@@H](N)Cc1ccc(O)cc1)[C@@H](C)O)[C@@H](C)O)[C@@H](C)CC)[C@@H](C)CC)C(=O)N[C@@H](CCC(=O)O)C(=O)NCC(=O)NCC(=O)N1CCC[C@H]1C(=O)N[C@@H](CO)C(=O)N[C@@H](CO)C(=O)NCC(=O)N[C@@H](C)C(=O)N1CCC[C@H]1C(=O)N1CCC[C@H]1C(=O)N1CCC[C@H]1C(=O)N[C@@H](CO)C(N)=O [Example 68],1.58,99.2,0.0881,0.153,0.0243
CC[C@H](C)[C@H](NC(=O)[C@H](CC(C)C)NC(=O)[C@H](Cc1ccc(O)cc1)NC(=O)[C@H](CCC(=O)O)NC(=O)[C@@H](NC(=O)[C@](C)(Cc1ccccc1)NC(=O)[C@H](C)NC(=O)C(C)(C)NC(=O)[C@H](CCC(N)=O)NC(=O)[C@H](C)NC(=O)[C@H](CCCCNC(=O)COCCOCCNC(=O)COCCOCCNC(=O)CC[C@H](NC(=O)CCCCCCCCCCCCCCCCCCC(=O)O)C(=O)O)NC(=O)[C@H](CCCCN)NC(=O)[C@H](CC(=O)O)NC(=O)[C@H](CC(C)C)NC(=O)[C@](C)(CC(C)C)NC(=O)[C@@H](NC(=O)[C@H](CO)NC(=O)[C@H](Cc1ccc(O)cc1)NC(=O)[C@H](CC(=O)O)NC(=O)[C@H](CO)NC(=O)[C@@H](NC(=O)[C@H](Cc1ccccc1)NC(=O)[C@@H](NC(=O)CNC(=O)[C@H](CCC(=O)O)NC(=O)C(C)(C)NC(=O)[C@@H](N)Cc1ccc(O)cc1)[C@@H](C)O)[C@@H](C)O)[C@@H](C)CC)[C@@H](C)CC)C(=O)N[C@@H](CCC(=O)O)C(=O)NCC(=O)NCC(=O)N1CCC[C@H]1C(=O)N[C@@H](CO)C(=O)N[C@@H](CO)C(=O)NCC(=O)N[C@@H](C)C(=O)N1CCC[C@H]1C(=O)N1CCC[C@H]1C(=O)N1CCC[C@H]1C(=O)N[C@@H](CO)C(N)=O [Example 74],5.99,69.8,0.0866,0.467,0.0279
CC[C@H](C)[C@H](NC(=O)[C@H](Cc1ccccc1)NC(=O)[C@H](C)NC(=O)C(C)(C)NC(=O)[C@H](CCC(N)=O)NC(=O)[C@H](C)NC(=O)[C@H](CCCCNC(=O)COCCOCCNC(=O)COCCOCCNC(=O)CC[C@H](NC(=O)CCCCCCCCCCCCCCCCCCC(=O)O)C(=O)O)NC(=O)[C@H](CCCCN)NC(=O)[C@H](CC(=O)O)NC(=O)[C@H](CC(C)C)NC(=O)[C@](C)(CC(C)C)NC(=O)[C@@H](NC(=O)[C@H](CO)NC(=O)[C@H](Cc1ccc(O)cc1)NC(=O)[C@H](CC(=O)O)NC(=O)[C@H](CO)NC(=O)[C@@H](NC(=O)[C@H](Cc1ccccc1)NC(=O)[C@@H](NC(=O)CNC(=O)[C@H](CCC(=O)O)NC(=O)C(C)(C)NC(=O)[C@@H](N)Cc1ccc(O)cc1)[C@@H](C)O)[C@@H](C)O)[C@@H](C)CC)C(=O)N[C@@H](CCC(=O)O)C(=O)N[C@@H](Cc1ccc(O)cc1)C(=O)N[C@@](C)(CC(C)C)C(=O)N[C@H](C(=O)N[C@@H](CCC(=O)O)C(=O)NCC(=O)NCC(=O)N1CCC[C@H]1C(=O)N[C@@H](CO)C(=O)N[C@@H](CO)C(=O)NCC(=O)N[C@@H](C)C(=O)N1CCC[C@H]1C(=O)N1CCC[C@H]1C(=O)N1CCC[C@H]1C(=O)N[C@@H](CO)C(N)=O)[C@@H](C)CC [Example 75],24.4,283,0.214,1.49,0.103
CC[C@H](C)[C@H](NC(=O)[C@H](CC(C)C)NC(=O)[C@H](Cc1ccc(O)cc1)NC(=O)[C@H](CCC(=O)O)NC(=O)[C@@H](NC(=O)[C@](C)(Cc1ccccc1)NC(=O)[C@H](C)NC(=O)C(C)(C)NC(=O)[C@H](CCC(N)=O)NC(=O)[C@H](C)NC(=O)[C@H](CCCCNC(=O)COCCOCCNC(=O)COCCOCCNC(=O)CC[C@H](NC(=O)CCCCCCCCCCCCCCCCCCC(=O)O)C(=O)O)NC(=O)[C@H](CCCCN)NC(=O)[C@H](CC(=O)O)NC(=O)[C@H](CC(C)C)NC(=O)[C@](C)(CC(C)C)NC(=O)[C@@H](NC(=O)[C@H](CO)NC(=O)[C@H](Cc1ccc(O)cc1)NC(=O)[C@H](CC(=O)O)NC(=O)[C@H](CO)NC(=O)[C@@H](NC(=O)[C@](C)(Cc1ccccc1)NC(=O)[C@@H](NC(=O)CNC(=O)[C@H](CCC(=O)O)NC(=O)C(C)(C)NC(=O)[C@@H](N)Cc1ccc(O)cc1)[C@@H](C)O)[C@@H](C)O)[C@@H](C)CC)[C@@H](C)CC)C(=O)N[C@@H](CCC(=O)O)C(=O)NCC(=O)NCC(=O)N1CCC[C@H]1C(=O)N[C@@H](CO)C(=O)N[C@@H](CO)C(=O)NCC(=O)N[C@@H](C)C(=O)N1CCC[C@H]1C(=O)N1CCC[C@H]1C(=O)N1CCC[C@H]1C(=O)N[C@@H](CO)C(N)=O [Example 76],2.64,14.4,0.124,0.125,0.0659
CC[C@H](C)[C@H](NC(=O)[C@H](CC(C)C)NC(=O)[C@H](Cc1ccc(O)cc1)NC(=O)[C@H](CCC(=O)O)NC(=O)[C@@H](NC(=O)[C@H](Cc1ccccc1)NC(=O)[C@H](C)NC(=O)C(C)(C)NC(=O)[C@H](CCC(N)=O)NC(=O)[C@H](C)NC(=O)[C@H](CCCCNC(=O)COCCOCCNC(=O)COCCOCCNC(=O)CC[C@H](NC(=O)CCCCCCCCCCCCCCCCCCC(=O)O)C(=O)O)NC(=O)[C@H](CCCCN)NC(=O)[C@H](CC(=O)O)NC(=O)[C@H](CC(C)C)NC(=O)[C@H](CC(C)C)NC(=O)[C@@H](NC(=O)[C@H](CO)NC(=O)[C@H](Cc1ccc(O)cc1)NC(=O)[C@H](CC(=O)O)NC(=O)[C@H](CO)NC(=O)[C@@H](NC(=O)[C@H](Cc1ccccc1)NC(=O)[C@@H](NC(=O)CNC(=O)[C@H](CCC(=O)O)NC(=O)C(C)(C)NC(=O)[C@H](N)Cc1ccc(O)cc1)[C@@H](C)O)[C@@H](C)O)[C@@H](C)CC)[C@@H](C)CC)C(=O)N[C@@H](CCC(=O)O)C(=O)NCC(=O)NCC(=O)N1CCC[C@H]1C(=O)N[C@@H](CO)C(=O)N[C@@H](CO)C(=O)NCC(=O)N[C@@H](C)C(=O)N1CCC[C@H]1C(=O)N1CCC[C@H]1C(=O)N1CCC[C@H]1C(=O)N[C@@H](CO)C(N)=O [Example 78],3.94,215,0.532,0.544,0.163
